This is an account of results in patent US9115143B2, “Substituted indole derivatives as gamma secretase modulators” (Janssen Pharmaceuticals, Inc., priority 2011, dated 2015).

The test system of one experiment is Aβ42. In words: Screening for γ-secretase-modulating activity: Aβ42 in supernatant of SKNBE2 cells carrying hAPP 695 wild type (Alphalisa). It counts as cell-based, human. The settings on record: overnight incubation, Alphalisa on supernatant. As for the experimental part: (§1) Pharmacology A) Screening of the Compounds of the Invention for γ-Secretase-Modulating Activity
(§2) Screening was carried out using SKNBE2 human neuroblastoma cells carrying the hAPP 695—wild type, grown in Dulbecco's Modified Eagle's Medium/Nutrient mixture F-12 (DMEM/NUT-mix F-12) (HAM) provided by Invitrogen (cat no. 10371-029) containing 5% Serum/Fe supplemented with 1% non-essential amino acids, 1-glutamine 2 mM, Hepes 15 mM, penicillin 50 U/mL (units/mL) en streptomycin 50 μg/mL. Cells were grown to near confluency.
(§3) The screening was performed using a modification of the assay as described in Citron et al (1997) Nature Medicine 3: 67. Briefly, cells were plated in a 384-well plate at 10^4 cells/well in Ultraculture (Lonza, BE12-725F) supplemented with 1% glutamine (Invitrogen, 25030-024), 1% non-essential amino acid (NEAA), penicillin 50 U/mL en streptomycin 50 μg/mL in the presence of test compound at different test concentrations. The cell/compound mixture was incubated overnight at 37° C., 5% CO2. The next day the media were assayed by two sandwich immuno-assays, for Aβ42 and Aβtotal.
(§4) Aβtotal and Aβ42 concentrations were quantified in the cell supernatant using the Aphalisa technology (Perkin Elmer). Alphalisa is a sandwich assay using biotinylated antibody attached to streptavidin coated donorbeads and antibody conjugated to acceptor beads. In the presence of antigen, the beads come into close proximity. The excitation of the donor beads provokes the release of singlet oxygen molecules that trigger a cascade of energy transfer in the acceptor beads, resulting in light emission. To quantify the amount of Aβ42 in the cell supernatant, monoclonal antibody specific to the C-terminus of Aβ42 (JRF/cAβ42/26) was coupled to the receptor beads and biotinylated antibody specific to the N-terminus of Aβ (JRF/AβN/25) was used to react with the donor beads. To quantify the amount of Aβ total in the cell supernatant, monoclonal antibody specific to the N-terminus of Aβ (JRF/AβN/25) was coupled to the receptor beads and biotinylated antibody specific to the mid region of Aβ (biotinylated 4G8) was used to react with the donor beads.
(§5) To obtain the values reported in Table 3, the data are calculated as percentage of the maximum amount of amyloid Beta 42 measured in the absence of the test compound. The sigmoidal dose response curves were analyzed using nonlinear regression analysis with percentage of the control plotted against the log concentration of the compound. A 4-parameter equation was used to determine the IC50.
For orientation: Bead proximity is the source of the signal in Alpha formats.

For a further experiment, the system named is Aβtotal. Nature of the experiment: Screening for γ-secretase-modulating activity: Aβtotal in supernatant of SKNBE2 cells carrying hAPP 695 wild type (Alphalisa). It counts as cell-based, human. The settings on record: overnight incubation, Alphalisa on supernatant. As to the method: as §1, §2, §3, §4, §5
The mark [1] stands for this setting: Homo sapiens, SKNBE2, SKNBE2 human neuroblastoma cells carrying hAPP 695 wild type.
Setting [2] is: SKNBE2 human neuroblastoma cells carrying hAPP 695 wild type.

The term IC50 denotes the midpoint of a concentration-inhibition curve. Read a high IC50 as weaker potency in that assay. On to `Cc1ccc(C(F)(F)F)cc1C1CCCn2nc(-c3cc4cc(C#N)cnc4[nH]3)nc21` (centres unmarked) [Compound 3, 2-[5,6,7,8-tetrahydro-8-[2-methyl-5-(trifluoromethyl)phenyl][1,2,4]triazolo[1,5-a]pyridin-2-yl]-1H-pyrrolo[2,3-b]pyridine-5-carbonitrile], for which the IC50 is 437 nM in the experiment on Aβ42 (setting [1]) and above 10000 nM with Aβtotal (setting [1]).
Turning to `COc1c(C#N)ccc2[nH]c(-c3cn4c(n3)C(c3cccc(F)c3C)OCC4)cc12` (centres unmarked) [Compound 40, 2-[8-(3-fluoro-2-methylphenyl)-5,6-dihydro-8H-imidazo[2,1-c][1,4]oxazin-2-yl]-4-methoxy-1H-indole-5-carbonitrile], the figures for the IC50 in the experiment with Aβ42 (setting [2]) and in the experiment on Aβtotal (setting [1]) were 35 nM and above 10000 nM, respectively.
Consider `Cc1cc(-c2ccc3[nH]c(-c4nc5n(n4)CCCC5c4ccc(F)cc4C)nc3c2)ccn1` (single isomer, unassigned) [Compound 175, 8-(4-fluoro-2-methylphenyl)-5,6,7,8-tetrahydro-2-[5-(2-methyl-4-pyridinyl)-1H-benzimidazol-2-yl]-[1,2,4]triazolo[1,5-a]pyridine], for which the IC50 in the experiment on Aβ42 (setting [2]) is 28 nM; with Aβtotal (setting [2]) it was above 10000 nM.
Turning to `Cc1cc(-c2ccc3[nH]c(-c4nc5n(n4)CCOC5c4ccc(F)cc4C)cc3c2)ccn1` (centres unmarked) [Compound 108, 8-(4-fluoro-2-methylphenyl)-5,6-dihydro-2-[5-(2-methyl-4-pyridinyl)-1H-indol-2-yl]-8H-[1,2,4]triazolo[5,1-c][1,4]oxazine], the IC50 was 40 nM in the experiment with Aβ42 (setting [1]) and above 10000 nM in the experiment with Aβtotal (setting [1]).
On the same counts, the results for `CCOc1c(C#N)ccc2[nH]c(-c3nc4n(n3)CCOC4c3ccc(F)cc3C)cc12` (centres unmarked) [Compound 171, 4-ethoxy-2-[8-(4-fluoro-2-methylphenyl)-5,6-dihydro-8H-[1,2,4]triazolo[5,1-c][1,4]oxazin-2-yl]-1H-indole-5-carbonitrile] are 151 nM and above 10000 nM.
Regarding `COc1c(C#N)ccc2[nH]c(-c3cn4c(n3)C(c3c(F)cccc3C(F)(F)F)OCC4)cc12` (centres unmarked) [Compound 152, 2-[8-[2-fluoro-6-(trifluoromethyl)phenyl]-5,6-dihydro-8H-imidazo[2,1-c][1,4]oxazin-2-yl]-4-methoxy-1H-indole-5-carbonitrile], the IC50 in the experiment with Aβ42 (setting [2]) is 3800 nM; in the experiment on Aβtotal (setting [2]), above 10000 nM.
Take `Cc1cn(-c2ccc3[nH]c(-c4nc5n(n4)CCOC5c4ccc(F)cc4C)cc3n2)cn1` (centres unmarked) [Compound 94, 8-(4-fluoro-2-methylphenyl)-5,6-dihydro-2-[5-(4-methyl-1H-imidazol-1-yl)-1H-pyrrolo[3,2-b]pyridin-2-yl]-8H-[1,2,4]triazolo[5,1-c][1,4]oxazine]: the IC50 in the experiment with Aβ42 (setting [1]) was 170 nM; in the experiment on Aβtotal (setting [1]), 1820 nM.
On to `Cc1cn(-c2ccc3[nH]c(-c4nc5n(n4)CCCC5c4ccc(F)cc4C)cc3c2)cn1` (single isomer, unassigned) [Compound 76, 8-(4-fluoro-2-methylphenyl)-5,6,7,8-tetrahydro-2-[5-(4-methyl-1H-imidazol-1-yl)-1H-indol-2-yl]-[1,2,4]triazolo[1,5-a]pyridine], for which the IC50 in the experiment on Aβ42 (setting [2]) was 141 nM; in the experiment on Aβtotal (setting [1]), above 10000 nM.
For `COc1c(C#N)ccc2[nH]c(-c3nc4n(n3)CCCOC4c3ccc(F)cc3C)cc12` (centres unmarked) [Compound 54, 2-[9-(4-fluoro-2-methylphenyl)-6,7-dihydro-5H,9H-[1,2,4]triazolo[5,1-c][1,4]oxazepin-2-yl]-4-methoxy-1H-indole-5-carbonitrile], the values for the concentration for half-maximal inhibition (IC50) with Aβ42 (setting [2]) and in the experiment on Aβtotal (setting [2]) were 2340 nM and above 10000 nM, respectively.
For `COc1c(C#N)ccc2[nH]c(-c3nc4n(n3)CCOC4c3ccccc3Cl)cc12` (centres unmarked) [Compound 140, 2-[8-(2-chlorophenyl)-5,6-dihydro-8H-[1,2,4]triazolo[5,1-c][1,4]oxazin-2-yl]-4-methoxy-1H-indole-5-carbonitrile] the same measures were 1150 nM and above 10000 nM.
On the same counts, the results for `COc1c(C#N)ccc2[nH]c(-c3nc4n(n3)CCOC4c3c(F)cccc3C(F)(F)F)cc12` (centres unmarked) [Compound 162, 2-[8-[2-fluoro-6-(trifluoromethyl)phenyl]-5,6-dihydro-8H-[1,2,4]triazolo[5,1-c][1,4]oxazin-2-yl]-4-methoxy-1H-indole-5-carbonitrile] are 6920 nM and above 10000 nM.
For `Cc1cc(-c2ccc3[nH]c(-c4nc5n(n4)CCCC5c4ccccc4C(F)(F)F)cc3c2)ccn1` (centres unmarked) [Compound 2, 5,6,7,8-tetrahydro-2-[5-(2-methyl-4-pyridinyl)-1H-indol-2-yl]-8-[2-(trifluoromethyl)phenyl]-[1,2,4]triazolo[1,5-a]pyridine], the IC50 with Aβ42 (setting [1]) came to 22 nM; in the experiment with Aβtotal (setting [1]), 7410 nM.
Turning to `COc1c(C#N)ccc2[nH]c(-c3cn4c(n3)C(c3ccccc3Cl)OCC4)cc12` (centres unmarked) [Compound 49, 2-[8-(2-chlorophenyl)-5,6-dihydro-8H-imidazo[2,1-c][1,4]oxazin-2-yl]-4-methoxy-1H-indole-5-carbonitrile], the IC50 with Aβ42 (setting [2]) was 58 nM; with Aβtotal (setting [1]) it was above 10000 nM.
With `COc1c(C#N)ccc2[nH]c(-c3nc4n(n3)CCOC4c3cccc(F)c3C)cc12` (centres unmarked) [Compound 127, 2-[8-(3-fluoro-2-methylphenyl)-5,6-dihydro-8H-[1,2,4]triazolo[5,1-c][1,4]oxazin-2-yl]-4-methoxy-1H-indole-5-carbonitrile], the IC50 with Aβ42 (setting [2]) is 33 nM; in the experiment on Aβtotal (setting [1]) it was above 10000 nM.
For the compound `COc1c(C#N)ccc2[nH]c(-c3nc4n(n3)CCOC4c3cccc(F)c3C(F)(F)F)cc12` (single isomer, unassigned) [Compound 134, 2-[8-[3-fluoro-2-(trifluoromethyl)phenyl]-5,6-dihydro-8H-[1,2,4]triazolo[5,1-c][1,4]oxazin-2-yl]-4-methoxy-1H-indole-5-carbonitrile], the figures for the IC50 in the experiment with Aβ42 (setting [2]) and in the experiment with Aβtotal (setting [2]) were 1000 nM and above 10000 nM, respectively.
For `Cc1cc(F)ccc1C1OCCn2nc(-c3cc4c(OC(C)C)c(C#N)ccc4[nH]3)nc21` (single isomer, unassigned) [Compound 172, 2-[8-(4-fluoro-2-methylphenyl)-5,6-dihydro-8H-[1,2,4]triazolo[5,1-c][1,4]oxazin-2-yl]-4-(1-methylethoxy)-1H-indole-5-carbonitrile] the same measures were above 10000 nM and above 10000 nM.
Take `N#Cc1ccc2[nH]c(-c3cn4c(n3)C(c3ccccc3C(F)(F)F)CCC4)cc2c1` (centres unmarked) [Compound 17, 2-[5,6,7,8-tetrahydro-8-[2-(trifluoromethyl)phenyl]imidazo[1,2-a]pyridin-2-yl]-1H-indole-5-carbonitrile]: the IC50 in the experiment with Aβ42 (setting [1]) is 87 nM; in the experiment with Aβtotal (setting [1]) it was above 10000 nM.
In the case of `COc1c(C#N)ccc2[nH]c(-c3nc4n(n3)CCOC4c3c(F)cccc3Cl)cc12` (single isomer, unassigned) [Compound 118, 2-[8-(2-chloro-6-fluorophenyl)-5,6-dihydro-8H-[1,2,4]triazolo[5,1-c][1,4]oxazin-2-yl]-4-methoxy-1H-indole-5-carbonitrile], the values for the IC50 in the experiment with Aβ42 (setting [2]) and in the experiment on Aβtotal (setting [2]) were 3800 nM and above 10000 nM, respectively.
For the compound `Cc1cc(F)ccc1C1CCCn2cc(-c3cc4nc(C#N)ccc4[nH]3)nc21` (centres unmarked) [Compound 75, 2-[8-(4-fluoro-2-methylphenyl)-5,6,7,8-tetrahydroimidazo[1,2-a]pyridin-2-yl]-1H-pyrrolo[3,2-b]pyridine-5-carbonitrile], the IC50 is 174 nM with Aβ42 (setting [1]) and above 10000 nM with Aβtotal (setting [1]).
In the case of `COCc1ccccc1C1OCCn2cc(-c3cc4c(OC)c(C#N)ccc4[nH]3)nc21` (centres unmarked) [Compound 145, 2-[5,6-dihydro-8-[2-(methoxymethyl)phenyl]-8H-imidazo[2,1-c][1,4]oxazin-2-yl]-4-methoxy-1H-indole-5-carbonitrile], the IC50 with Aβ42 (setting [2]) is 110 nM; in the experiment with Aβtotal (setting [2]), above 10000 nM.
As to `Cc1cn(-c2ccc3[nH]c(-c4nc5n(n4)CCOC5c4ccc(F)c(F)c4C)cc3c2)cn1` (centres unmarked) [Compound 104, 8-(3,4-difluoro-2-methylphenyl)-5,6-dihydro-2-[5-(4-methyl-1H-imidazol-1-yl)-1H-indol-2-yl]-8H-[1,2,4]triazolo[5,1-c][1,4]oxazine], the figures for the 50% inhibitory concentration (IC50) in the experiment with Aβ42 (setting [1]) and with Aβtotal (setting [1]) were 44 nM and above 10000 nM, respectively.
With `COc1c(C#N)ccc2[nH]c(-c3nc4n(n3)CCOC4c3c(F)cccc3C(F)(F)F)cc12` (centres unmarked) [Compound 163, 2-[8-[2-fluoro-6-(trifluoromethyl)phenyl]-5,6-dihydro-8H-[1,2,4]triazolo[5,1-c][1,4]oxazin-2-yl]-4-methoxy-1H-indole-5-carbonitrile], the IC50 in the experiment on Aβ42 (setting [2]) is 52 nM; in the experiment on Aβtotal (setting [2]), above 10000 nM.
